# Measurements from patent US20100086602A1, “PHARMACEUTICAL COMPOSITION CONTAINING STATIN-ENCAPSULATED NANOPARTICLE” (priority 2006, published 2010).
# “Also recorded” adds a separate entry of the source.
# Tests used:
# [1] = system: muscular tissues of ischemic hindlimb; set-up: species or system mice; conditions: mouse, in vivo
# Description: (§1) Male C57BL/6J wild-type mice were bred and maintained in the Laboratory of Animal Experiments at Kyushu University. After anesthesia with an intraperitoneal injection of ketamine hydrochloride and xyladine hydrochloride, animals underwent surgical ligation and resection of the left femoral artery to produce unilateral hindlimb ischemia. […] As a control, a group of PLGA-FITC-mice (FITC group) received intramuscular injections of FITC-loaded PLGA nanoparticles (0.16 mg/100 μl), a group of PEG/CS-PLGA-FITC-mice (PEG/CS-FITC group) received intramuscular injections of FITC-loaded PEG/CS PLGA nanoparticles (0.16 mg/100 μl), and another group of mice (NT group) received no treatment.
# [2] = Serological assessment 14 days after hindlimb ischemia; format: in vivo, mice
# Description: as §1
# There were no difference between each group in the total cholesterol, triglyceride, myoglobin, CK, BUN and Cre values in serum.
# [3] = system: unilateral hindlimb ischemia; assay: Capillary density by immunohistochemical staining with anti-mouse PECAM-1 (CD31) antibody; format: in vivo, mice; conditions: day 14 after hindlimb ischemia; 0.01 mg statin intramuscular
# Description: (§2) A group of PLGA-Pit-mice (PLGA-Pit group) and a group of PEG/CS-PLGA-Pit-mice (PEG/CS-Pit group) received intramuscular injections of pitavastatin-loaded PLGA nanoparticles (0.18 mg/100 μl) and pitavastatin-loaded PEG/CS-PLGA nanoparticles (0.44 mg/100 μl, each containing 0.01 mg of pitavastatin), respectively. As control, a group of PLGA-mice (PLGA group) received intramuscular injections of PLGA nanoparticles (0.18 mg/100 μl) and another group of mice (NT group) received no treatment.
# [4] = system: unilateral hindlimb ischemia; assay: Laser Doppler perfusion imaging of limb blood flow after hindlimb ischemia; format: in vivo, mice; conditions: single intramuscular injection containing 0.01 mg statin (0.5 mg/kg), days 0, 3, 7 and 14, versus no-treatment
# Description: as §2
# hindlimb ischemia [5] = assay: Partial pressure ratio of oxygen in arterial and venous blood during muscular exercise of ischemic hindlimb; format: in vivo, Japanese rabbit; conditions: 35 days after ischemia; exercise by electric stimulus for 30 minutes; 0, 15 and 30 minutes
# Description: Japanese rabbits (2.7 to 3.2 kg) underwent surgical ligation and resection of the unilateral femoral artery to produce hindlimb ischemia. After 7 days, animals were randomized to four groups: PLGA-pitavastatin group, PLGA-FITC group, pitavastatin group and PBS group, and received therapeutic substances by intra-ischemic-muscular injection of 5 ml (concentration of pitavastatin-loaded nanoparticle 6 mg/ml, corresponding to 0.33 mg/ml of pitavastatin). After 28 days from intramuscular injection (35 days after ischemia), animals were performed angiography. Mice were inserted catheters (5 Fr) from right internal carotid artery and the catheters were placed in left internal iliac artery under fluoroscopic control. […] 5 mm of grids were prepared within the range surrounded by lower end of femur (upper end), lower end of quadriceps (lower end), arteria iliaca interna (trunks are not counted, inner end) and distal portion of severed blood vessel (outer end). Angiographic score was calculated by dividing the number of grids in which blood vessel is found by total number of grids.
# The effect of nanostatin on insufficient blood from at ischemic hindlimb on muscular exercising is examined. […] The partial pressure ratio of oxygen in arterial and venous blood in each time point was determined. The concentration of hemoglobine was determined at 0 minute. […]
# hindlimb ischemia [6] = assay: Angiography 35 days after hindlimb ischemia (angiographic score); format: in vivo, Japanese rabbits; conditions: Mean±SE; 35 days after ischemia, 28 days after intramuscular injection of 5 ml (0.33 mg/ml pitavastatin)
# Description: Japanese rabbits (2.7 to 3.2 kg) underwent surgical ligation and resection of the unilateral femoral artery to produce hindlimb ischemia. After 7 days, animals were randomized to four groups: PLGA-pitavastatin group, PLGA-FITC group, pitavastatin group and PBS group, and received therapeutic substances by intra-ischemic-muscular injection of 5 ml (concentration of pitavastatin-loaded nanoparticle 6 mg/ml, corresponding to 0.33 mg/ml of pitavastatin). After 28 days from intramuscular injection (35 days after ischemia), animals were performed angiography. Mice were inserted catheters (5 Fr) from right internal carotid artery and the catheters were placed in left internal iliac artery under fluoroscopic control. 0.25 mg of Millisrol were injected into artery through catheters, followed by injection of imaging agents at the rate of 1 ml/second for 5 seconds to perform angiography. An assessment for the number of blood vessel was carried out by using static images at 3 second after injection of imaging agents. 5 mm of grids were prepared within the range surrounded by lower end of femur (upper end), lower end of quadriceps (lower end), arteria iliaca interna (trunks are not counted, inner end) and distal portion of severed blood vessel (outer end). Angiographic score was calculated by dividing the number of grids in which blood vessel is found by total number of grids.
# hindlimb ischemia [7] = assay: Recovery rate of ischemic tissues, pitavastatin dose comparison (FIG. 15); format: in vivo, mice; conditions: intramuscular, one portion; only pitavastatin 0.4, 4 and 20 mg/kg or PLGA-pitavastatin; days 3, 7 and 14
# Description: The recovery rate of ischemic tissues were determined for ischemic mice injected intramuscularly with only nanoparticles, only pitavastatin (0.4, 4 and 20 mg/kg) or PLGA-pitavastatin in one portion.
# [8] = system: unilateral hindlimb ischemia; assay: Arteriogenesis by immunohistochemical staining with α-SMA; format: in vivo, mice; conditions: day 14 after hindlimb ischemia; 0.01 mg pitavastatin intramuscular
# Description: as §2
# Arteriogenesis was determined by immunohistochemical staining with α-SMA.
molecule,measurement,setting,value
FITC,nanoparticles remaining in muscular tissues (fluorescence),[1],nanoparticles remain in muscular tissues on day 7
CC(C)c1c(C(=O)Nc2ccccc2)c(-c2ccccc2)c(-c2ccc(F)cc2)n1CC[C@@H](O)C[C@@H](O)CC(=O)O [atorvastatin],signs of rhabdomyolysis,[2]; intramuscularly injected mice,Neither group of atorvastatin nor atorvastatin-loaded nanoparticle intramuscularly injected mice showed the signs of rhabdomyolysis
same,BUN,"[2]; serum, n = 4",30.3 ± 2.8 mg/dL
same,CK,"[2]; serum, n = 4",159.0 ± 37.7 IU/L
same,Cre,"[2]; serum, n = 4",0.083 ± 0.009 mg/dL
same,myoglobin,"[2]; serum, n = 4",<10 ng/mL
same,total cholesterol,"[2]; serum, n = 4",66.0 ± 3.2 mg/dL
same,triglyceride,"[2]; serum, n = 4",13.5 ± 1.8 mg/dL
O=C(O)C[C@H](O)C[C@H](O)/C=C/c1c(C2CC2)nc2ccccc2c1-c1ccc(F)cc1 [pitavastatin],"capillary density, endothelial cells (CD31 positive cells)",[3],comparable to no-treatment group
same,"limb blood flow at ischemic side (LDPI index, ratio of ischemic to normal limb)",[4],comparable to no-treatment group
same,"limb blood flow at ischemic side (LDPI index, ratio of ischemic to normal limb)",[4]; listed as Pit,no improvement of blood flow
same,partial pressure ratio of oxygen in arterial and venous blood during muscular exercise,hindlimb ischemia [5],increases of partial pressure ratio of oxygen in arterial and venous blood were shown
same,Angiographic score,hindlimb ischemia [6],0.51±0.04
same,recovery of ischemic tissues / angiogenesis (ratio of ischemic region to normal region),hindlimb ischemia [7],does not result in angiogenesis; also recorded: No angiogenesis
same,α-SMA positive vascular structure (arteriogenesis),[8],comparable to no-treatment group
